Data published in ChEMBL document CHEMBL1255353, “Antistreptococcal activity of AR-709 compared to that of other agents” (2008).

Tests used:
Format in all cases: functional
[1] = test system: Streptococcus pneumoniae; experiment: Antimicrobial activity against penicillin-intermediate Streptococcus pneumoniae by agar dilution method
[2] = test system: Streptococcus pneumoniae; experiment: Antimicrobial activity against trimethoprim-sulfamethoxazole-susceptible Streptococcus pneumoniae by agar dilution method
[3] = test system: Streptococcus pneumoniae; experiment: Antimicrobial activity against quinolone-resistant Streptococcus pneumoniae by agar dilution method
[4] = test system: Streptococcus pneumoniae; experiment: Antimicrobial activity against Streptococcus pneumoniae assessed as time required to show antibiotic effect
[5] = test system: Streptococcus pneumoniae; experiment: Antimicrobial activity against penicillin-resistant Streptococcus pneumoniae by agar dilution method
[6] = test system: Streptococcus pneumoniae; experiment: Antimicrobial activity against quinolone-susceptible Streptococcus pneumoniae by agar dilution method
[7] = test system: Streptococcus sp. 'group A'; experiment: Antimicrobial activity against macrolide-susceptible Streptococcus sp. 'group A' by agar dilution method
[8] = test system: Streptococcus pneumoniae; experiment: Antimicrobial activity against penicillin-susceptible Streptococcus pneumoniae by agar dilution method
[9] = test system: Streptococcus pneumoniae; experiment: Antimicrobial activity against macrolide-susceptible Streptococcus pneumoniae by agar dilution method
[10] = test system: Streptococcus pneumoniae; experiment: Antimicrobial activity against macrolide-resistant Streptococcus pneumoniae by agar dilution method
[11] = test system: Streptococcus pneumoniae; experiment: Antimicrobial activity against trimethoprim-sulfamethoxazole-resistant Streptococcus pneumoniae by agar dilution method
[12] = test system: Streptococcus sp. 'group A'; experiment: Antimicrobial activity against macrolide-resistant Streptococcus sp. 'group A' by agar dilution method
[13] = test system: Streptococcus pneumoniae; experiment: Antimicrobial activity against macrolide-resistant Streptococcus pneumoniae by agar dilution method in presence of […] clavulanic acid
[14] = test system: Streptococcus pneumoniae; experiment: Antimicrobial activity against penicillin-susceptible Streptococcus pneumoniae by agar dilution method in presence of […] clavulanic acid
[15] = test system: Streptococcus pneumoniae; experiment: Antimicrobial activity against quinolone-susceptible Streptococcus pneumoniae by agar dilution method in presence of […] clavulanic acid
[16] = test system: Streptococcus pneumoniae; experiment: Antimicrobial activity against penicillin-intermediate Streptococcus pneumoniae by agar dilution method in presence of […] clavulanic acid
[17] = test system: Streptococcus sp. 'group A'; experiment: Antimicrobial activity against macrolide-susceptible Streptococcus sp. 'group A' by agar dilution method in presence of […] clavulanic acid
[18] = test system: Streptococcus pneumoniae; experiment: Antimicrobial activity against trimethoprim-sulfamethoxazole-resistant Streptococcus pneumoniae by agar dilution method in presence of […] clavulanic acid
[19] = test system: Streptococcus pneumoniae; experiment: Antimicrobial activity against quinolone-resistant Streptococcus pneumoniae by agar dilution method in presence of […] clavulanic acid
[20] = test system: Streptococcus pneumoniae; experiment: Antimicrobial activity against macrolide-susceptible Streptococcus pneumoniae by agar dilution method in presence of […] clavulanic acid
[21] = test system: Streptococcus pneumoniae; experiment: Antimicrobial activity against penicillin-resistant Streptococcus pneumoniae by agar dilution method in presence of […] clavulanic acid
[22] = test system: Streptococcus pneumoniae; experiment: Antimicrobial activity against trimethoprim-sulfamethoxazole-susceptible Streptococcus pneumoniae by agar dilution method in presence of […] clavulanic acid

COc1cc(Cc2cnc(N)nc2N)c2cc(Cc3c(C(=O)N(C)C)[nH]c4ccc(Cl)cc34)oc2c1OC
1 µg/mL: MIC90 [3] | MIC90 [5]
0.03 µg/mL: MIC90 [12]
0.06 µg/mL: MIC50 [2] | MIC50 [7] | MIC90 [7] | MIC50 [8]
0.5 µg/mL: MIC90 [1] | MIC90 [6] | MIC90 [9] | MIC90 [10] | MIC90 [11]
>=1.1 hr: Time [4]
0.12 µg/mL: MIC90 [2] | MIC50 [6] | MIC50 [9]
0.016 µg/mL: MIC50 [12]
0.25 µg/mL: MIC50 [1] | MIC50 [3] | MIC50 [5] | MIC90 [8] | MIC50 [10] | MIC50 [11]

CC1(C)S[C@@H]2[C@H](NC(=O)[C@H](N)c3ccc(O)cc3)C(=O)N2[C@H]1C(=O)O [AMOXICILLIN]
2 µg/mL: MIC90 [15] | MIC90 [19] | MIC50 [21]
0.5 µg/mL: MIC50 [18] | MIC50 [19]
0.03 µg/mL: MIC90 [14] | MIC50 [22]
1 µg/mL: MIC90 [16] | MIC90 [20]
≤ 0.016 µg/mL: MIC [14] | MIC50 [14] | MIC [17] | MIC50 [17] | MIC90 [17]
0.12 µg/mL: MIC50 [13] | MIC50 [15] | MIC50 [16] | MIC90 [22]
4 µg/mL: MIC90 [13] | MIC90 [18] | MIC90 [21]
0.06 µg/mL: MIC50 [20]

CC[C@H]1OC(=O)[C@H](C)[C@@H](O[C@H]2C[C@@](C)(OC)[C@@H](O)[C@H](C)O2)[C@H](C)[C@@H](O[C@@H]2O[C@H](C)C[C@H](N(C)C)[C@H]2O)[C@](C)(O)C[C@@H](C)CN(C)[C@H](C)[C@@H](O)[C@]1(C)O [AZITHROMYCIN]
8 µg/mL: MIC50 [5] | MIC50 [11]
0.12 µg/mL: MIC50 [1] | MIC50 [2] | MIC50 [3] | MIC50 [7] | MIC50 [8] | MIC50 [9] | MIC90 [9]
> 64 µg/mL: MIC90 [1] | MIC90 [2] | MIC90 [6] | MIC90 [8] | MIC50 [10] | MIC50 [12] | MIC90 [12]
0.25 µg/mL: MIC90 [7]
4 µg/mL: MIC50 [6]
